Test results published in ChEMBL document CHEMBL6134906, “Design, Synthesis, and Biological Evaluation of Selective STING Synergists That Enhance cGAMP-STING Pathway Activation without Inherent Agonist Activity” (J Med Chem, 2025).

Columns and labels:
THP-1 = experiment: Cytotoxicity against human THP-1 cells assessed as cell viability at 100 uM incubated for 48 hrs by CellTiter Glo luminescent cell viability assay relative to control; conditions: THP-1, 48 h, read-out: Activity
[1] = biological target: Stimulator of interferon genes protein (Homo sapiens, UniProt Q86WV6)
Sequence of Stimulator of interferon genes protein (Q86WV6 whole entry): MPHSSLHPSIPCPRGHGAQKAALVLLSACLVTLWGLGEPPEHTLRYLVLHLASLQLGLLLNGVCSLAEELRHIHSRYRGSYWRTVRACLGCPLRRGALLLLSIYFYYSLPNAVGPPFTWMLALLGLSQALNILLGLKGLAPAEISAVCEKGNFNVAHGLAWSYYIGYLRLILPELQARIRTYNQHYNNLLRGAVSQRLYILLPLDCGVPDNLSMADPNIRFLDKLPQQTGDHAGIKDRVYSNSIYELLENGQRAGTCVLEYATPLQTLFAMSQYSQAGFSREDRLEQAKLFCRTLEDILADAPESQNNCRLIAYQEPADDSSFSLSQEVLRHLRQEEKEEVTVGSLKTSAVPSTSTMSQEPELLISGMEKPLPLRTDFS

IC50 [1] [µM]	Structure (SMILES)	viability at 100 µM (THP-1) [%]
> 100	Cc1ccc2c(=O)c3cccc(CC(=O)O)c3[nH]c2c1C	93.4
13.7	COc1ccc2[nH]c3c(C)c(C)ccc3c(=O)c2c1	98.8
28	COc1cc2c(=O)c3cccc(CC(=O)O)c3[nH]c2c(C)c1C	91.4
> 100	Cc1ccc2c(=O)c3cc(F)cc(CC(=O)O)c3[nH]c2c1C	99
11.4	COc1cc(CC(=O)O)c2[nH]c3c(C)c(C)c(OC)cc3c(=O)c2c1	86.7
> 100	Cc1ccc2c(=O)c3c(Cl)ccc(CC(=O)O)c3[nH]c2c1C	87.7
> 100	Cc1ccc2c(=O)c3c(F)ccc(CC(=O)O)c3[nH]c2c1C	103
> 100	COc1ccc2c(c1)c(=O)c1ccc(C)c(C)c1n2CC(=O)O	95.8
25.1	COc1cc2c(=O)c3cc(C)ccc3n(CC(=O)O)c2c(C)c1C	105
–	COc1cc2c(=O)c3c(Cl)ccc(CC(=O)O)c3[nH]c2c(C)c1C	95.4
33.8	COc1ccc2c(c1)c(=O)c1cc(OC)c(C)c(C)c1n2CC(=O)OCC(C)(C)C	93.3
–	COc1cc2c(=O)c3cc(F)cc(CC(=O)O)c3[nH]c2c(C)c1C	106
5.95	COc1cc2c(=O)c3cc(C)cc(C(=O)O)c3[nH]c2c(C)c1C	98.4
> 100	CCOC(=O)Cn1c2ccc(OC)cc2c(=O)c2ccc(C)c(C)c21	99.2
8.26	COc1cc2c(=O)c3ccccc3n(CC(=O)O)c2c(C)c1C	86.9
–	COc1cc2c(=O)c3c(F)ccc(CC(=O)O)c3[nH]c2c(C)c1C	87.8
26	CCOC(=O)Cn1c2ccc(OC)cc2c(=O)c2cc(OC)c(C)c(C)c21	102
–	COc1cc(C(=O)O)c2[nH]c3c(C)c(C)c(OC)cc3c(=O)c2c1	96.5
11.1	COc1ccc2c(c1)c(=O)c1cc(OC)c(C)c(C)c1n2CC(=O)O	83.3
–	CCOC(=O)Cn1c2ccccc2c(=O)c2cc(OC)c(C)c(C)c21	93.5
–	COc1cc2c(=O)c3cc(Cl)cc(CC(=O)O)c3[nH]c2c(C)c1C	82
41.5	COC(=O)Cn1c2ccc(C)cc2c(=O)c2cc(OC)c(C)c(C)c21	85.7
–	COc1cc2c(=O)c3cccc(C(=O)O)c3[nH]c2c(C)c1C	92.1
> 100	COc1cc(C(=O)O)c2[nH]c3c(C)c(C)ccc3c(=O)c2c1	91.3
> 100	Cc1ccc2c(=O)c3cc(Cl)cc(CC(=O)O)c3[nH]c2c1C	83.4
